Where “and” joins values, the source holds several entries; their conditions need not be identical. Equal values may be shown once. Read-outs that look alike come from different tables or passages of the source.
Experiments:
[1] = target: T1, rat isoform of TRPM8 channels (Rattus norvegicus, UniProt Q8R455); experiment: Ca2+ fluorometric assay, block of menthol-evoked responses in HEK293 cells stably expressing rTRPM8; assay type: cell-based; conditions: for potency compared with AMTB: calcium fluorometric assay; for Efficacy: percentage of inhibition of menthol evoked currents at the maximum concentration used (50 µM)
T1 construct: expressed in transfected cells
T1 sequence (Q8R455 whole entry, canonical isoform): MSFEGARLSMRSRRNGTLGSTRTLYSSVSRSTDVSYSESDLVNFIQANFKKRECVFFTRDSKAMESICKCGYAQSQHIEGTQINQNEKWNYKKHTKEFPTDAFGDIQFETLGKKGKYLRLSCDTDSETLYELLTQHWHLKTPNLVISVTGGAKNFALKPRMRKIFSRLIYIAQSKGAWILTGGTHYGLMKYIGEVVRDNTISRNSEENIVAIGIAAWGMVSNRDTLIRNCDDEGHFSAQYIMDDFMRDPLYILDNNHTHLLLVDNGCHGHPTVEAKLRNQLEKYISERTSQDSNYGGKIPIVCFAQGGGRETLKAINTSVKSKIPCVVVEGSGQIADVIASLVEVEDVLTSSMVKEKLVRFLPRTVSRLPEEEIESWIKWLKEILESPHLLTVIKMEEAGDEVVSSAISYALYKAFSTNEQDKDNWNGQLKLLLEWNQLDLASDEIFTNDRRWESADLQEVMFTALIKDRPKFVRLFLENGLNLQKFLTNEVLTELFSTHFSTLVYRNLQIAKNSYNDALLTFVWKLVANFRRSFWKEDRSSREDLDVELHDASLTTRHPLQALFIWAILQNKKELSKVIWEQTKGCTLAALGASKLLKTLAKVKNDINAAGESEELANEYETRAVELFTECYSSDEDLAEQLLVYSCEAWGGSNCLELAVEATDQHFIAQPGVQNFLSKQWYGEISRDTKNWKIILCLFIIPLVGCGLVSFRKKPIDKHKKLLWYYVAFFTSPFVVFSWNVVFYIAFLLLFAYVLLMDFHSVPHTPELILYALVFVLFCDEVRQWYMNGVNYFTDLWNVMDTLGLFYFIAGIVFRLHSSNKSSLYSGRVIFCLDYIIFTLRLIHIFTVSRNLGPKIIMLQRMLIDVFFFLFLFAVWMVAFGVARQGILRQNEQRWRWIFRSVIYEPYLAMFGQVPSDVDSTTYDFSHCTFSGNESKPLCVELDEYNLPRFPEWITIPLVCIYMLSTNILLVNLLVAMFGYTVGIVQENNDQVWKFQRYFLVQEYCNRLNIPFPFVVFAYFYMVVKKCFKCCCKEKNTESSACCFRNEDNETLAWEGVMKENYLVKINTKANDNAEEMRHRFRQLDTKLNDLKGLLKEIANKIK
Protocol: The inhibitory activity of the 21 selected compounds over TRPM8 was challenged by Ca^2+ fluorometric assays using HEK293 cells stably expressing the rat isoform of TRPM8 channels. Menthol and AMTB were used as reference agonist and antagonist, respectively. The compounds were initially tested at three different concentrations (50 μM, 5 μM, and 0.5 μM) to assess their ability in blocking 100 μM menthol evoked currents.
(§1) Cells, HEK-293 cells stably expressing rTRPM8 or hTRPV1, were cultured in a monolayer in Earle’s minimum essential medium with Earle’s salts supplemented with 10% fetal calf serum, 1% nonessential amino acids, 2 mM L-glutamine, 100 µg streptomycin/mL, 100 U penicillin/mL, and 0.4 µg/mL puromycin (referred to as Puro-EMEM) and kept at 37 °C in a humidified atmosphere of 5% CO2 in a suitable incubator (STERI-CyCLE CO2 Incubator Hepa Class 100, Thermo Electrón Corporation, Waltham, MA, USA). Cells were stored under liquid nitrogen and used for 15 generations from unfreezing.
For fluorometric experiments, HEK-293 cells stably expressing rTRPM8 or hTRPV1 were detached by means of Trypsin/EDTA solution, resuspended in DMEM-10%FCS and seeded at a concentration of 2 × 10^4 cells/mL.
(§2) Briefly human embryonic kidney cell line (HEK) stably transfected with rTRPM8 or hTRPV1 were seeded in 96-well plates at a cell density of 30,000 cells. After 2 days the medium was replaced with 100 μL of the dye loading solution Fluo-4 NW supplemented with probenecid 2.5 mM and incubated 1 h at 37 °C. The TRP ion channel activity was measured using POLASTAR plate reader (BMG Labtech, Ortenberg, Germany) setting the excitation wavelength at 485 nm and emission wavelength at 520 nm. The baseline fluorescence was recorded for 3 cycles before the addition of the vehicle, compound at different concentrations, and the antagonist, 10 μM AMTB for TRPM8 and Ruthenium red for TRPV1. Fluorescence intensity was recorded during 7 more cycles and agonist 100 μM menthol for TRPM8 or 10 μM capsaicin for TRPV1 was added. Fluorescence intensity was recorded during 10 more cycles.
Data analysis: The Z-factor was calculated in each assay using the following equation: […]. […] A decrease in menthol signal was expressed as a percentage of inhibition (%). All data are expressed as the mean ± standard deviation (SD). Data are expressed as the concentration exerting a half-maximal inhibition of agonist-induced (Ca^2+)^i elevation (IC50), which was calculated again using GraphPad Prism® software (GraphPad Prism 5, Graphpad Software, San Diego, CA, USA). The equation used was Y = Bottom + (Top − Bottom)/(1 + 10^((LogEC50-X) ^× HillSlope)), with the restriction of the minimum (Bottom = 0). All determinations were performed in triplicate (n = 3) in 3 independent experiments (n= 3).

hTRPV1 = target: T2, hTRPV1 (Homo sapiens, UniProt Q8NER1); experiment: Ca2+ fluorometric assay on HEK-293 cells stably expressing hTRPV1 (selectivity); assay type: cell-based
T2 construct: expressed in transfected cells
T2 sequence (Q8NER1 whole entry): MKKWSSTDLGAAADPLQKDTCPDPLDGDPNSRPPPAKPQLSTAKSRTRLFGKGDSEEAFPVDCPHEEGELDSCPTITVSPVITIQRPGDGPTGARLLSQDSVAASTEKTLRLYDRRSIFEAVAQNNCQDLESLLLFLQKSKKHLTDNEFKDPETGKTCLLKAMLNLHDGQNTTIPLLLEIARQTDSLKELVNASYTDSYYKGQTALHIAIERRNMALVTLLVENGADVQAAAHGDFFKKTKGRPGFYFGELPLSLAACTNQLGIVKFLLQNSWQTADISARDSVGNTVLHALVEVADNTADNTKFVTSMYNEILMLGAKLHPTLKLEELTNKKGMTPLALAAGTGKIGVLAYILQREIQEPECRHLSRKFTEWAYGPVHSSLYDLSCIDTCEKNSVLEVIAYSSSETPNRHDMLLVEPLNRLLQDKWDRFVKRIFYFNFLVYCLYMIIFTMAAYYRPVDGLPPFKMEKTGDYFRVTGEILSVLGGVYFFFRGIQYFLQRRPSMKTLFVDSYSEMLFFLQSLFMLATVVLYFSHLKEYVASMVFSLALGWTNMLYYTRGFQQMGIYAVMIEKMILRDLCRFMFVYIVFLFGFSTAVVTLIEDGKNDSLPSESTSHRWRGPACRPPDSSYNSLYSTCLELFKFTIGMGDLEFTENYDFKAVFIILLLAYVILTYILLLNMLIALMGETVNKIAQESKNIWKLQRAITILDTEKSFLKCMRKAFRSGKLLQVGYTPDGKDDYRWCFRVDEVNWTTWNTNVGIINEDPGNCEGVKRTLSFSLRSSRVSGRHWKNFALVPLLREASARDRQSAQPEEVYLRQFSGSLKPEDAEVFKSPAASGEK
Protocol: as §1, with “unfreezing. […]” for “unfreezing.”
as §2, with “After 2 days the medium was replaced with 100 μL of the dye loading solution Fluo-4 NW supplemented with probenecid 2.5 mM and incubated 1 h at 37 °C.” left out, “cycles. […]” for “cycles.”

rTRPM8 = target: T3, rTRPM8 (Rattus norvegicus, UniProt Q8R455); experiment: Whole-cell patch-clamp on HEK-rTRPM8 cells, menthol-evoked currents; assay type: cell-based
T3 construct: expressed in transfected cells
T3 sequence (Q8R455 whole entry): as the sequence (Q8R455 whole entry, canonical isoform) above
Protocol: Dose-response curves were then recorded to evaluate the compound relative potencies.
Whole-cell patch-clamp recordings from HEK-rTRPM8 cells were carried out 2 days after seeding on 12-mm Ø glass coverslips treated with poly-L-lysine solution (Sigma Aldrich, Madrid, Spain); the intracellular pipette solution contained (in mM) 150 NaCl, 5 EGTA, 3 MgCl2, and 10 HEPES, adjusted to pH 7.2 with NaOH, and the extracellular solution contained (in mM) 150 NaCl, 6 CsCl, 1.5 CaCl2, 1 MgCl2, 10 D-glucose and 10 HEPES, adjusted to pH 7.4 with NaOH. The TRPM8 activity was measured by the application of two pulses of 100 μM menthol in a time interval of 2 min and 30-s perfusion of the different compound concentrations before the second menthol pulse.
The series resistance was <10 MΩ and to minimize voltage errors was compensated to 60–80%. All measurements were performed at 24–25 °C. Cell capacitance was measured and used to estimate the current density (J, pA/pF).
For the whole-cell patch-clamp experiments, results are expressed as the percentage of the remaining activation of the TRPM8 channel. This is calculated by normalizing the ratio (p2/p1) of testing conditions to the ratio (p2/p1) of the control condition. The analysis of the data was performed by GraphPad 6.0, the ordinary one-way ANOVA analysis followed by the post hoc Bonferroni test established multiple comparisons, and the ROUT method (Q = 10%) identified data outliers. […] Paired or unpaired Student’s t-tests were also used for data comparison between two groups. All data are expressed as the mean ± standard error of the mean (SEM) (n = 12–15).

[2] = test system: oxaliplatin-induced cold allodynia; experiment: Oxaliplatin-induced cold hypersensitivity, acetone drop test; assay type: in vivo, mice; conditions: for effect on oxaliplatin-induced cold hypersensitivity: acetone drop test
Text: TRPM8 antagonism is deeply related to analgesic in vivo effects and has been proposed as a suitable pharmacological strategy for the treatment of chronic pain, migraine, and painful syndromes. TRPM8 antagonists are particularly known to counteract the chemotherapy-induced neuropathic pain evoked by oxaliplatin [24, 27, 28, 29]. For these reasons we challenged compound 14 (BB 0322703) in vivo using the oxaliplatin-induced cold hypersensitivity assay. […]. […] In particular, a correspondence between the in vitro potency and the effective in vivo dose is typical for TRPM8 modulators in the oxaliplatin-induced neuropathic pain model. Extremely in-vitro potent compounds are effective also at lower doses […]. When in vitro potency is reduced, as also in the present case, in vivo efficacy decreases correspondingly. […] This is also the case of compound 14, which for these reasons could be considered a promising hit-compound for the development of new chemotypes as TRPM8 antagonists and a pharmacological tool for the treatment of neuropathic pain.
[…]. Care was taken to minimize the number of animals used and the pain and stress they experienced. All experimental procedures were approved by the Animal Care and Use Committees of Universidad Miguel Hernández and the regional government and were conducted according to the ethical principles of the International Association for the Study of Pain (IASP) for the evaluation of pain in conscious animals, the European Parliament and the Council Directive (2010/63/EU) and the Spanish law (RD 53/2013). Housing conditions were maintained at 21 ± 1 °C and 55 ± 15% relative humidity in a controlled light/dark cycle (light on between 8:00 a.m. and 8:00 p.m.). Animals had free access to food and water except during the habituation or the evaluation of nociceptive sensitivity. All parts of the study concerning animal care were performed under veterinary control.
Compound 14 (BB 0322703) was dissolved in 2.5% dimethyl sulfoxide (Merck, Darmstadt, Germany) and 2.5% cremophor EL (Merck) diluted in saline. […]
Oxaliplatin-induced neuropathic pain was induced by repeated oxaliplatin administration (Cat. No. 2623, Tocris, Bristol, UK). […] Nociceptive sensitivity was assessed before oxaliplatin treatment and 3 days after the last oxaliplatin administration.
Cold chemical thermal sensitivity was assessed using the acetone drop method as previously described. […] The responses were measured for 1 min with a digital stopwatch. For each measurement, the paw was sampled three times and the mean was calculated. […]
Behavioral data were analyzed with a repeated-measures ANOVA followed by a post-hoc Tukey test (GraphPad Prism 7.04, GraphPad Software Inc.). p-values lower than 0.05 were considered statistically significant.

| SMILES | IC50 [1] [µM] | potency compared with AMTB [1] | Efficacy [1] [%] | other results |
| --- | --- | --- | --- | --- |
| NCC1CCCN(CCc2cccc(F)c2)C1 (centres unmarked) [Compound 1] | 10.2 ± 1.31 | comparable potencies to AMTB | 85 |  |
| Cc1cccc(COc2ccccc2C(=O)N(CCCN)Cc2cccs2)c1 [AMTB, reference compound] |  |  | 100 | IC50 ([1]; 100 μM menthol, HEK293 rTRPM8, mean ± SD of at least three independent measurements, read-out: IC50): 7.15 ± 1.24 µM |
| CCOC(=O)C(C)Nc1ccccc1C(=O)NC(C)c1ccccc1 [Compound 14, Ethyl (R)-N-[2-{[(1-Phenylethyl)amino]carbonyl}phenyl]-2-aminopropionic acid] | 0.25 ± 0.15 |  | 100 | IC50 (rTRPM8): 1.25 ± 0.26 µM; effect on TRPM8 menthol-evoked currents (rTRPM8; compound at 10 μM, 100 μM menthol): abolishing the TRPM8 menthol-evoked currents; Hill slope, patch-clamp inhibition (rTRPM8; fit of dose-response curve, Top = 100): −1.23; IC50/potency fold difference versus AMTB ([1]; calcium fluorometric IC50 compared with reference AMTB): about 30 fold; efficacy in cold allodinya model ([2]; 30 μM dose (abstract)): showing pharmacological efficacy; effect on oxaliplatin-induced cold hypersensitivity ([2]; mice, intraplantar 10 µg): did not show significant modification of their nociceptive sensitivity; duration of inhibition of cold hypersensitivity ([2]; mice, intraplantar dose of 30 µg): at least 1 h; effect on oxaliplatin-induced cold hypersensitivity ([2]; mice, intraplantar dose of 30 µg, p < 0.05 vs. Oxaliplatin): significant inhibition of this cold hypersensitivity |

The next lines start with results.

| IC50 [1] [µM] | potency compared with AMTB [1] | Efficacy [1] [%] | SMILES | other results |
| --- | --- | --- | --- | --- |
| 5.52 ± 1.45 | comparable potencies to AMTB | 90 | COC(=O)C1=C(Nc2ccccc2F)SC(=Cc2ccccc2OCC#CC(C)(O)c2ccccn2)C1=O (centres unmarked) [Compound 19] | EC50 (hTRPV1; agonist, normalized to capsaicine 10 μM = 100%, brackets 95% confidence interval, read-out: EC50 TRPV1 activation): 1.34 to 1.68 µM and 1.34 µM; Hill Slope, TRPV1 activation (hTRPV1; fit of dose-response curve, Bottom = 0): 0.67 |
| 11.1 ± 1.32 | comparable potencies to AMTB | 95 | Cc1nn(C)c(Oc2ccc(Cl)cc2)c1-c1noc(C)c1C(=O)Nc1ccc(F)cc1 [Compound 5] |  |
